Laboratory results taken from article PMC6339850 (ACS chemical neuroscience, 2018).
Like-named read-outs stand apart in the source and are kept apart here. Bridge positions count the residues as written; N and C are the ends. Square brackets hold non-standard residues; d marks the D form. Dap = NC[C@H](N)C(=O)O

Experiments:
[1] = target: T1, mouse MC1R (Mus musculus, UniProt Q01727); experiment: cell-based
[2] = target: T2, mouse MC3R (Mus musculus, UniProt P33033); experiment: cAMP AlphaScreen antagonist assay
T2 sequence (P33033 whole entry): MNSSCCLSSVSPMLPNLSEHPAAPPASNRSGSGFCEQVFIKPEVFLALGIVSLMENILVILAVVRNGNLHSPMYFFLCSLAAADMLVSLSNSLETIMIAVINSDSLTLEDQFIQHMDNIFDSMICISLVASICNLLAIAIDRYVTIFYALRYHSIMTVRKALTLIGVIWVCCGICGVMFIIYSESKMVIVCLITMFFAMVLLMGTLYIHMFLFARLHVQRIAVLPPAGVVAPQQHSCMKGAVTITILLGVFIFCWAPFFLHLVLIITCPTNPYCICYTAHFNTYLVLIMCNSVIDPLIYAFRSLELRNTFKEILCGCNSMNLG

[3] = target: T2, mouse MC3R; experiment: cell-based
[4] = target: T1, mouse MC1R; settings: for MC1R potency increase compared to the starting ligand 2: agonist potency relative to 2; for mMC1R percent maximal stimulatory response at 100 μM: 100000.0
[5] = target: T3, mouse MC5R (Mus musculus, UniProt P41149); experiment: cell-based
T3 sequence (P41149 whole entry): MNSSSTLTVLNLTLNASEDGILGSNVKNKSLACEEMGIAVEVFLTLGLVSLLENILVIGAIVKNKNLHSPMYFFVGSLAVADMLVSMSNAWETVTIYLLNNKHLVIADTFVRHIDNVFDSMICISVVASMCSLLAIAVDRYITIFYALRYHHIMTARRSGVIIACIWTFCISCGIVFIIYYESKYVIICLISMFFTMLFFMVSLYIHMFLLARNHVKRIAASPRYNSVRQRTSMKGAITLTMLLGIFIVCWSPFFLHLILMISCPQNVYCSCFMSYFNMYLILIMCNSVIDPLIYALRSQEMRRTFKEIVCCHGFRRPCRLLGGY

[6] = target: T3, mouse MC5R; settings: for MC5R activity in words: up to 100 μM; for mMC5R inverse agonist, percent change from basal at 100 μM / mMC5R percent maximal stimulatory response at 100 μM: 100000.0
[7] = target: T2, mouse MC3R; settings: for MC3R activity in words: agonist (up to 100 μM) and antagonist activity at the concentrations assayed; for mMC3R percent maximal stimulatory response at 100 μM: 100000.0
[8] = target: T4, mouse MC4R (Mus musculus, UniProt P56450); experiment: cAMP AlphaScreen agonist assay, HEK293 cells stably expressing mouse MC4R; settings: agonist (up to 100 μM) and antagonist activity at the concentrations assayed
T4 sequence (P56450 whole entry): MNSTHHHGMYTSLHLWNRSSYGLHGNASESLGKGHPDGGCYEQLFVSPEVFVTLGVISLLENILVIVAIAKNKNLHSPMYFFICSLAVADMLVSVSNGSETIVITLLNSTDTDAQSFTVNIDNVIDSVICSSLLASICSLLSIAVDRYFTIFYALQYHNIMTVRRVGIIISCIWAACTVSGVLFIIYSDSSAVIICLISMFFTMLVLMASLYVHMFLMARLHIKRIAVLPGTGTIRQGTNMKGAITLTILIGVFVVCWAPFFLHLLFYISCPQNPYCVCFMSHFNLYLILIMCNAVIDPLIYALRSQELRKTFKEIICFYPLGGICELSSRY

[9] = target: T4, mouse MC4R; experiment: cAMP AlphaScreen antagonist assay; settings: highest assayed concentrations
[10] = target: mouse melanocortin-5 receptor (mouse) (UniProt P41149)
Sequence of mouse melanocortin-5 receptor (mouse) (P41149 whole entry): as the sequence (P41149 whole entry) above

[11] = target: mouse melanocortin-3 receptor (mouse) (UniProt P33033)
Sequence of mouse melanocortin-3 receptor (mouse) (P33033 whole entry): as the sequence (P33033 whole entry) above

[12] = target: mouse melanocortin-4 receptor (mouse) (UniProt P56450)
Sequence of mouse melanocortin-4 receptor (mouse) (P56450 whole entry): as the sequence (P56450 whole entry) above

[13] = test system: MC1R; settings: read-out: MC1R agonist potency, cited from earlier work

T1 sequence (Q01727 whole entry): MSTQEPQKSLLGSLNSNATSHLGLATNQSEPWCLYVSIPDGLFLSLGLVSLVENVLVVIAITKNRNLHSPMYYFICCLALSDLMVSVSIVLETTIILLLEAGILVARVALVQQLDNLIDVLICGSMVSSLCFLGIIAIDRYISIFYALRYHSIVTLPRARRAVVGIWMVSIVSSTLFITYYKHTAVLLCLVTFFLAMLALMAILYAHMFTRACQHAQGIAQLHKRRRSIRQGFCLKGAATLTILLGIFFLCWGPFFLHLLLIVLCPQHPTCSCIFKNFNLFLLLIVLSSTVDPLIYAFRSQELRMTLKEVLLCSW

Work on C[C@@H]1NC(=O)[C@H](CN)NC(=O)[C@@H](Cc2ccccc2)NC(=O)[C@@H](Cc2ccccc2)NC(=O)[C@H](CCCNC(=N)N)NC(=O)[C@@H]2CCCN2C(=O)[C@H]2CCCN2C(=O)[C@H](Cc2ccccc2)NC1=O [Peptide 15, c[Pro-Arg-DPhe-DPhe-Dap-Ala-Phe-DPro]] yielded an EC50 [1] of 0.7 ± 0.3 µM, a Kb [2] of 2 µM and an EC50 [3] of over 100 µM. The “MC1R potency increase compared to the starting ligand 2” value [4] was > 1,000 fold, the EC50 [5] was over 100 µM and the “MC5R activity in words” value [6] was “no activity was observed”.

For C[C@@H]1NC(=O)[C@H](CN)NC(=O)[C@@H](Cc2ccccc2)NC(=O)[C@@H](Cc2ccccc2)NC(=O)[C@@H](CCCNC(=N)N)NC(=O)[C@@H]2CCCN2C(=O)[C@H]2CCCN2C(=O)[C@H](Cc2ccccc2)NC1=O [Peptide 16, c[Pro-DArg-DPhe-DPhe-Dap-Ala-Phe-DPro]], the EC50 [1] was 2.2 µM, the Kb [2] was over 3.16 µM and the EC50 [3] was over 100 µM. For the same compound, the “MC3R activity in words” value [7] was “no activity”, the “mMC5R inverse agonist, percent change from basal at 100 μM” value (from here on “mMC5R inverse agonist, percent change”) [6] was 15% and the “MC5R activity in words” value [6] was “apparent inverse agonist activity”.

For C[C@@H]1NC(=O)[C@H](CC(N)=O)NC(=O)[C@@H](Cc2ccccc2)NC(=O)[C@@H](Cc2ccccc2)NC(=O)[C@@H](CCCNC(=N)N)NC(=O)[C@@H]2CCCN2C(=O)[C@H]2CCCN2C(=O)[C@H](Cc2ccccc2)NC1=O [Peptide 9, c[Pro-DArg-DPhe-DPhe-Asn-Ala-Phe-DPro]], the EC50 [1] was 1.3 µM, the “MC3R activity in words” value [7] was “No agonist or antagonist activity was observed” and the “MC4R activity in words” value [8] was “No agonist or antagonist activity was observed”. The “MC4R antagonist activity in words” value [9] was “did not possess antagonist activity” and the “mMC5R percent maximal stimulatory response at 100 μM” value [6] was 55%.

In the case of C[C@@H]1NC(=O)[C@H](CC(N)=O)NC(=O)[C@H](Cc2ccccc2)NC(=O)[C@@H](Cc2ccccc2)NC(=O)[C@@H](CCCNC(=N)N)NC(=O)[C@@H]2CCCN2C(=O)[C@H]2CCCN2C(=O)[C@H](Cc2ccccc2)NC1=O [Peptide 6, c[Pro-DArg-DPhe-Phe-Asn-Ala-Phe-DPro]], the EC50 [1] is reported as 0.5 µM, the “MC3R activity in words” value [7] is reported as “No activity was observed” and the “MC4R activity in words” value [8] is reported as “No activity was observed”. For the same compound, the “MC4R antagonist activity in words” value [9] was “did not possess antagonist activity” and the “mMC5R percent maximal stimulatory response at 100 μM” value [6] was 55%.

In the case of C[C@@H]1NC(=O)[C@H](CC(N)=O)NC(=O)[C@H](Cc2ccccc2)NC(=O)[C@@H](Cc2ccccc2)NC(=O)[C@H](CCCNC(=N)N)NC(=O)[C@@H]2CCCN2C(=O)[C@H]2CCCN2C(=O)[C@H](Cc2ccccc2)NC1=O [Peptide 4, c[Pro-Arg-DPhe-Phe-Asn-Ala-Phe-DPro]], the EC50 [1] is reported as 0.7 µM, the “mMC5R inverse agonist, percent change” value [6] is reported as 25% and the “MC5R activity in words” value [6] is reported as “apparent inverse agonist activity”.

In the case of C[C@@H]1NC(=O)[C@H](CC(N)=O)NC(=O)[C@@H](Cc2ccccc2)NC(=O)[C@H](Cc2ccccc2)NC(=O)[C@@H](CCCNC(=N)N)NC(=O)[C@@H]2CCCN2C(=O)[C@H]2CCCN2C(=O)[C@H](Cc2ccccc2)NC1=O [Peptide 7, c[Pro-DArg-Phe-DPhe-Asn-Ala-Phe-DPro]], the “mMC3R percent maximal stimulatory response at 100 μM” value [7] is reported as 35%, the “MC4R antagonist activity in words” value [9] is reported as “did not possess antagonist activity” and the “MC5R activity in words” value [6] is reported as “full agonist”.

In the case of “c[Pro-Arg-DPhe-Phe-Dap-Ala-Phe-DPro] (peptide)”, the agonist EC50; cAMP AlphaScreen, HEK293 cells stably expressing mouse MC5R [10] is reported as over 100 µM and the agonist EC50; cAMP AlphaScreen, HEK293 cells stably expressing mouse MC3R [11] is reported as over 100 µM.

In the case of C[C@@H]1NC(=O)[C@H](CN)NC(=O)[C@H](Cc2ccccc2)NC(=O)[C@@H](Cc2ccccc2)NC(=O)[C@H](CCCNC(=N)N)NC(=O)[C@@H]2CCCN2C(=O)[C@H]2CCCN2C(=O)[C@H](Cc2ccccc2)NC1=O [Peptide 11, c[Pro-Arg-DPhe-Phe-Dap-Ala-Phe-DPro]], the EC50 [1] is reported as 0.23 ± 0.08 µM, the Kb [2] is reported as 1.2 µM and the EC50 [3] is reported as over 100 µM. The “MC3R activity in words” value [7] was “No agonist activity was observed”, the “MC1R potency increase compared to the starting ligand 2” value [4] was > 1,000 fold and the EC50 [5] was over 100 µM. The “MC5R activity in words” value [6] was “No agonist activity was observed”.

Compound C[C@@H]1NC(=O)[C@H](CN)NC(=O)[C@@H](Cc2ccccc2)NC(=O)[C@H](Cc2ccccc2)NC(=O)[C@H](CCCNC(=N)N)NC(=O)[C@@H]2CCCN2C(=O)[C@H]2CCCN2C(=O)[C@H](Cc2ccccc2)NC1=O [Peptide 12, c[Pro-Arg-Phe-DPhe-Dap-Ala-Phe-DPro]] has an EC50 [1] of 0.8 µM, a Kb [2] of over 3.16 µM and an EC50 [3] of over 100 µM. The “MC3R activity in words” value [7] was “No activity was observed”, the EC50 [5] was over 100 µM and the “MC5R activity in words” value [6] was “No activity was observed”.

“c[Pro-DArg-Phe-Phe-Dap-Ala-Phe-DPro] (peptide)” gave an agonist EC50; cAMP AlphaScreen, HEK293 cells stably expressing mouse MC5R [10] of over 100 µM.

With “c[Pro-Arg-Phe-DPhe-Dap-Ala-Phe-DPro] (peptide)” the agonist EC50; cAMP AlphaScreen, HEK293 cells stably expressing mouse MC5R [10] was over 100 µM, the agonist EC50; cAMP AlphaScreen, HEK293 cells stably expressing mouse MC3R [11] was over 100 µM and the agonist EC50; cAMP AlphaScreen, HEK293 cells stably expressing mouse MC4R [12] was over 100 µM.

For “c[Pro-DArg-DPhe-DPhe-Dap-Ala-Phe-DPro] (peptide)”, the agonist EC50; cAMP AlphaScreen, HEK293 cells stably expressing mouse MC3R [11] was over 100 µM and the agonist EC50; cAMP AlphaScreen, HEK293 cells stably expressing mouse MC4R [12] was over 100 µM.

In the case of “c[Pro-Arg-DPhe-DPhe-Dap-Ala-Phe-DPro] (peptide)”, the agonist EC50; cAMP AlphaScreen, HEK293 cells stably expressing mouse MC5R [10] is reported as over 100 µM, the agonist EC50; cAMP AlphaScreen, HEK293 cells stably expressing mouse MC3R [11] is reported as over 100 µM and the agonist EC50; cAMP AlphaScreen, HEK293 cells stably expressing mouse MC4R [12] is reported as over 100 µM.

“c[Pro-DArg-Phe-DPhe-Dap-Ala-Phe-DPro] (peptide)” gave an agonist EC50; cAMP AlphaScreen, HEK293 cells stably expressing mouse MC3R [11] of over 100 µM and an agonist EC50; cAMP AlphaScreen, HEK293 cells stably expressing mouse MC4R [12] of over 100 µM.

For C[C@@H]1NC(=O)[C@H](CN)NC(=O)[C@@H](Cc2ccccc2)NC(=O)[C@H](Cc2ccccc2)NC(=O)[C@@H](CCCNC(=N)N)NC(=O)[C@@H]2CCCN2C(=O)[C@H]2CCCN2C(=O)[C@H](Cc2ccccc2)NC1=O [Peptide 14, c[Pro-DArg-Phe-DPhe-Dap-Ala-Phe-DPro]], the EC50 [1] was 0.45 µM, the Kb [2] was 2 µM and the EC50 [3] was over 100 µM. For the same compound, the “mMC5R inverse agonist, percent change” value [6] was 20% and the “MC5R activity in words” value [6] was “apparent inverse agonist activity”.

For C[C@@H]1NC(=O)[C@H](CC(N)=O)NC(=O)[C@@H](Cc2ccccc2)NC(=O)[C@@H](Cc2ccccc2)NC(=O)[C@H](CCCNC(=N)N)NC(=O)[C@@H]2CCCN2C(=O)[C@H]2CCCN2C(=O)[C@H](Cc2ccccc2)NC1=O [Peptide 8, c[Pro-Arg-DPhe-DPhe-Asn-Ala-Phe-DPro]], the EC50 [1] was 0.8 µM.

In the case of “H-Tyr-c[Cys-Arg-Phe-Phe-Asn-Ala-Phe-Cys]-Tyr-OH”, the EC50 ([13]; previously reported ref 33) is listed as 2.89 µM.

For C[C@@H]1NC(=O)[C@H](CC(N)=O)NC(=O)[C@@H](Cc2ccccc2)NC(=O)[C@H](Cc2ccccc2)NC(=O)[C@H](CCCNC(=N)N)NC(=O)[C@@H]2CCCN2C(=O)[C@H]2CCCN2C(=O)[C@H](Cc2ccccc2)NC1=O [Peptide 5, c[Pro-Arg-Phe-DPhe-Asn-Ala-Phe-DPro]], the “MC4R activity in words” value [8] was “loss of agonist and antagonist activities” and the “mMC1R percent maximal stimulatory response at 100 μM” value [4] was 50%.

In the case of “H-Tyr-c[Dap-Arg-Phe-Phe-Asn-Ala-Phe-Asp]-Tyr-NH2 (Y[Dap]RFFNAFDY-NH2; lactam N-9; SMILES C[C@@H]1NC(=O)[C@H](CC(N)=O)NC(=O)[C@H](Cc2ccccc2)NC(=O)[C@H](Cc2ccccc2)NC(=O)[C@H](CCCNC(=N)N)NC(=O)[C@H](CN)NC(=O)[C@H](Cc2ccc(O)cc2)NC(=O)C[C@@H](C(=O)N[C@@H](Cc2ccc(O)cc2)C(N)=O)NC(=O)[C@H](Cc2ccccc2)NC1=O)”, the EC50 ([13]; previously reported ref 34) is listed as 28.1 µM.

With C[C@@H]1NC(=O)[C@H](CC(N)=O)NC(=O)[C@H](Cc2ccccc2)NC(=O)[C@H](Cc2ccccc2)NC(=O)[C@@H](CCCNC(=N)N)NC(=O)[C@@H]2CCCN2C(=O)[C@H]2CCCN2C(=O)[C@H](Cc2ccccc2)NC1=O [Peptide 3, c[Pro-DArg-Phe-Phe-Asn-Ala-Phe-DPro]] the “MC4R antagonist activity in words” value [9] was “did not possess antagonist activity”.

With “c[Pro-DArg-DPhe-Phe-Dap-Ala-Phe-DPro] (peptide)” the agonist EC50; cAMP AlphaScreen, HEK293 cells stably expressing mouse MC3R [11] was over 100 µM and the agonist EC50; cAMP AlphaScreen, HEK293 cells stably expressing mouse MC4R [12] was over 100 µM.

Work on C[C@@H]1NC(=O)[C@H](CN)NC(=O)[C@H](Cc2ccccc2)NC(=O)[C@@H](Cc2ccccc2)NC(=O)[C@@H](CCCNC(=N)N)NC(=O)[C@@H]2CCCN2C(=O)[C@H]2CCCN2C(=O)[C@H](Cc2ccccc2)NC1=O [Peptide 13, c[Pro-DArg-DPhe-Phe-Dap-Ala-Phe-DPro]] yielded an EC50 [1] of 0.8 µM, a Kb [2] of 1 µM and an EC50 [3] of over 100 µM. For the same compound, the “mMC5R inverse agonist, percent change” value [6] was 30% and the “MC5R activity in words” value [6] was “apparent inverse agonist activity”.

In the case of C[C@@H]1NC(=O)[C@H](CN)NC(=O)[C@H](Cc2ccccc2)NC(=O)[C@H](Cc2ccccc2)NC(=O)[C@@H](CCCNC(=N)N)NC(=O)[C@@H]2CCCN2C(=O)[C@H]2CCCN2C(=O)[C@H](Cc2ccccc2)NC1=O [Peptide 10, c[Pro-DArg-Phe-Phe-Dap-Ala-Phe-DPro]], the Kb [2] is reported as 2 µM, the “mMC3R percent maximal stimulatory response at 100 μM” value [7] is reported as 25% and the “mMC1R percent maximal stimulatory response at 100 μM” value [4] is reported as 25%. The EC50 [5] was over 100 µM and the “MC5R activity in words” value [6] was “no activity was observed”.
